# Patent US10407399B2, “Ion-activated photolabile compounds” (HOWARD HUGHES MEDICAL INSTITUTE, priority 2015, dated 2019)
# “And” between values parts separate entries of the source, which are not always exact repeats. Equal values may be shown once.
# How the values were obtained:
# [1] = Determination of photochemical quantum yield (365 nm irradiation, fluorescence of released fluorophore); type: physicochemical; conditions: for photochemical quantum yield (Φ) in the presence of Ca^2+: 10 mM CaCl2, 30 mM MOPS pH 7.2, 100 mM KCl; for photochemical quantum yield (Φ) in the presence of Ca^2+ / photochemical quantum yield (Φ) in the absence of Ca^2+: 365 nm; for photochemical quantum yield (Φ) in the absence of Ca^2+: 10 mM EGTA, 30 mM MOPS pH 7.2, 100 mM KCl; for enhancement in photochemical quantum yield upon Ca^2+ binding: presence vs absence of Ca^2+
# Method: (§1) All measurements were taken at ambient temperature (23±2° C.). […] Spectroscopy was performed using 1-cm path length quartz or polymethacrylate cuvettes (Starna or Fisher). Absorption measurements were recorded on a Cary Model 100 spectrometer (Varian). Fluorescence measurements spectra were recorded on a Cary Eclipse fluorometer (Varian). Buffer pH was adjusted with KOH. Curve fitting was accomplished with GraphPad Prism 5.
# Photochemistry was performed in 1-cm path length/3.5 mL quartz cuvettes (Starna) in a Luzchem LZC 4V photoreactor equipped with 365 nm UV lamps, a carousel, and a timer. The irradiation was determined by potassium ferrioxalate actinometry.^3 A solution of 60 mM K3Fe(C2O4)3 was irradiated using the photoreactor setup. Released Fe^2+ was determined by complexometry with 1,10 phenanthroline. Using the known photochemical quantum yield of this process, we determined the photon flux (I)=[…]. Samples (10 μM, 3.5 mL) were irradiated in either zero calcium buffer (30 mM MOPS pH 7.2, 10 mM EGTA, 100 mM KCl) or calcium-containing buffer (30 mM MOPS pH 7.2, 10 mM CaCl2, 100 mM KCl) and a small aliquot (30 μL) was removed and diluted 100-fold in matching buffer. The fluorescence of these samples was then measured (coumarin 402: λex/λem=402/447 nm; Tokyo Green compound S13: λex/λem=496/520 nm). The quantum yield (Φ, mol/ein) was determined by fitting a plot of fluorescence vs. irradiation time to a one-phase association described by equation 1: Ft=Fmax−Fmax(e^−IσΦt) (1) where Fmax=maximal fluorescence, t=time (min), Ft=fluorescence at time t, I=irradiation (ein/min·cm^2), and σ=decadic extinction coefficient (cm^2/mol; 1000-fold higher than the value with units of M^−1 cm^−1 based on cuvette geometry). For compound 402 we determined Φ=4.8±0.2% (mean±SE) in the presence of 10 mM Ca^2+ and Φ=0.0079±0.0003% in the presence of 10 mM EGTA (FIG. 19B). For compound S13 we found Φ=1.63±0.05% in the presence of 10 mM Ca^2+ and Φ=0.0110±0.0004% in the presence of 10 mM EGTA (FIG. 20A).
# [2] = Absorption spectrum in buffers containing varying [Ca^2+]; type: physicochemical
# From the text: The absorption spectrum of 402 was first examined in buffers containing varying [Ca^2+] (FIG. 19A). […] A small (<5%) but significant increase in absorption around 350 nm was also observed when calcium ion concentration is raised. However, the coumarin moiety dominates absorption in the UV with an extinction coefficient (e)=2.4×10^4 M^−1 cm^−1 at 350 nm. These absorbance changes indicate that chelation of calcium causes a switch from the colored quinoid form to the UV-absorbing aromatic form (FIG. 3).
# as §1
# cultured neurons = experiment: Light-gated integration of Ca^2+ evoked by electrical stimulation; type: cell-based, rat; conditions: for rate k of increase in cellular fluorescence versus irradiation time: n=20
# Method: The present compound was then utilized to measure calcium ion changes in neurons evoked by electrical activity. Low-affinity reversible Ca^2+ indicators are advantageous for use in biological systems as their low buffering capacity preserves native calcium ion dynamics. Nevertheless, poor signal-to-background ratios of such indicators may restricts their utility to subcellular compartments undergoing extremely high calcium flux (e.g., dendritic spines). […] Cells were incubated with AM ester 403 and subjected to the photoactivation imaging protocol. In one population of cells neuronal action potential firing was elicited by field stimulation at 80 Hz.
# (§2) HEK293T/17 cells (ATCC) were cultured according to instructions in poly-D-lysine-coated 24-well CellBind plates (Corning) in Dulbecco's modified eagle medium (DMEM; Invitrogen) supplemented with 10% v/v fetal bovine serum (FBS; Invitrogen) and maintained at 37° C. in a humidified 5% CO2 v/v environment. Primary rat hippocampal neurons were prepared and cultured as described previously. Imaging buffer for HEK293T/17 cells consisted of Dulbecco's phosphate buffered saline (DPBS; Invitrogen). Imaging buffer for cultured neurons consisted of: 145 mM NaCl, 2.5 KCl, 10 mM glucose, 10 mM HEPES pH 7.4, 2 mM CaCl2, and 1 mM MgCl2. To load cells with the dosimeter, a stock solution of 403 (1 mM) in DMSO containing 10% w/v Pluronic F-127 (Sigma) was added to a final concentration of 10 μM in imaging buffer. Cells were incubated in this solution for 1 h at 37° C., after which the cells were washed with imaging buffer (3×) and imaged. The final imaging buffer wash for cultured neurons additionally contained pharmacological agents (10 μM CNQX, 10 μM (R)-CPP, 10 μM gabazine, and 1 mM (S)-MCPG; Tocris) to block spontaneous cellular activity.
# (§3) Cells were imaged on a Olympus IX-81 microscope using a 10× or 20× objective and a DAPI filter set (Semrock DAPI-5060C-000; excitation: 352-402 nm, dichroic cutoff: 409 nm, emission: 417-477 nm) filtering a mercury arc lamp. Excitation/photoactivation light was attenuated using a neutral density filter giving a light intensity of 60 mW/cm^2. To raise intracellular calcium ion levels (FIGS. 19B, 21B, and 22B), cells were incubated with 10 μM ionomycin (Sigma) and 4 mM CaCl2 for 2 min prior to imaging.
# Cultured neurons loaded with compound 403 were stimulated electrically to induce action potential firing at 80 Hz for one second prior to and during illumination with excitation/photoactivation light. A Grass S48 Stimulator (Grass Technologies) was used with a custom-built platinum wire field stimulation electrode.
# [3] = tested on: cultured hippocampal neurons; experiment: Live cell photoactivation imaging of neurons with or without ionomycin; type: cell-based, rat; conditions: for rate k of cellular fluorescence increase versus irradiation time: 10 μM, 1 h loading, 365 nm
# Method: The utility of the embodied system was then observed in a cellular context. The hexa-acetoxymethyl (AM) ester 403 of compound 402 was prepared (FIG. 8). This membrane-permeant compound enabled loading of cultured hippocampal neurons with the light-gated chemodosimeter. The overlap of the photouncaging wavelength (λ=351 nm) and the excitation spectra (λmax=402 nm) of the coumarin allowed simultaneous imaging and activation with a single light source centered at 365 nm.
# as §2, §3
# [4] = Determination of Kd from fluorescence after photoactivation as a function of [Ca^2+]; type: binding; conditions: methoxy replaced with pyrrolidine, versus 402; readout not stated
# Method: as §1
# For [Ca^2+]<40 μM, the free calcium concentration was controlled by a commercial EGTA buffer system (Invitrogen). […] For [Ca^2+]>40 μM, buffers were prepared with 1 mM EGTA and excess CaCl2 in 30 mM MOPS pH 7.2 and 100 mM KCl. Different buffer solutions containing 100 nM of 402 or S13 were irradiated in clean glass vials for 1 min using the photoreactor setup described above. The samples were then transferred to a black, clear bottom, 96-well polystyrene microplate with a nonbinding surface coating (Corning). Fluorescence was read from the bottom on a FlexStation3 fluorescence microplate reader (Molecular Devices; for coumarin 402: λex/λem=402/447 nm; for Tokyo Green compound S13: λex/λem=496/520 nm). The plot of fluorescence vs. [Ca^2+] was fit to one site-specific binding curve to determine the Kd. Found: 28.3±0.6 μM (±SE) for 402 and 28.0±0.8. μM for S13.
smiles,measurement,setting,value
"COc1ccc(N(CC(=O)O)CC(=O)O)c(OCCOc2cc([N+](=O)[O-])c(COc3ccc4cc(C(=O)NC5CCC(N(CC(=O)O)CC(=O)O)CC5)c(=O)oc4c3)cc2N(CC(=O)O)CC(=O)O)c1 (stereo not shown) [compound 402, 2,2′((2-(2-(2-(Bis(carboxymethyl)amino)-4-(((3-(((1r,4r)-4-(bis(carboxymethyl)amino)cyclohexyl)carbamoyl)-2-oxo-2H-chromen-7-yl)oxy)methyl)-5-nitrophenoxy)ethoxy)-4-methoxyphenyl)azanediyl)diacetic acid]",photochemical quantum yield (Φ) in the presence of Ca^2+,[1],4.8% and 4.8±0.2%
same,photochemical quantum yield (Φ) in the absence of Ca^2+,[1],0.008% and 0.0079±0.0003%
same,Ca^2+ dependence of uncaging photochemistry,"[1]; fluorescence of released coumarin vs 365 nm irradiation time, 10 mM CaCl2 or 10 mM EGTA",efficient photochemistry was observed only in the presence of calcium
same,enhancement in photochemical quantum yield upon Ca^2+ binding,[1],600 fold
same,increase in absorption around 350 nm when calcium ion concentration is raised,[2],< 5%
same,visible absorption at 430 nm as [Ca^2+] increases,[2],dramatic decrease
same,extinction coefficient,[2]; at 350 nm,24000 M⁻¹ cm⁻¹
"COc1ccc(N(CC(=O)OCOC(C)=O)CC(=O)OCOC(C)=O)c(OCCOc2cc([N+](=O)[O-])c(COc3ccc4cc(C(=O)N[C@H]5CC[C@H](N(CC(=O)OCOC(C)=O)CC(=O)OCOC(C)=O)CC5)c(=O)oc4c3)cc2N(CC(=O)OCOC(C)=O)CC(=O)OCOC(C)=O)c1 [compound 403, Bis(acetoxymethyl) 2,2′-((2-(2-(2-(bis(2-(acetoxymethoxy)-2-oxoethyl)amino)-4-(((3-(((1r,4r)-4-(bis(2-(acetoxymethoxy)-2-oxoethyl)amino)cyclohexyl)carbamoyl)-2-oxo-2H-chromen-7-yl)oxy)methyl)-5-nitrophenoxy)ethoxy)-4-methoxyphenyl)azanediyl)diacetate]",permanent increase in cellular fluorescence,cultured neurons; field stimulation at 80 Hz,200%
same,rate increase in cellular fluorescence relative to unstimulated cells,cultured neurons; field stimulation at 80 Hz,4 fold
same,rate k of increase in cellular fluorescence versus irradiation time,cultured neurons; with field stimulation at 80 Hz,0.133 s⁻¹
same,rate k of increase in cellular fluorescence versus irradiation time,cultured neurons; without electrical stimulation,0.0325 s⁻¹
same,increase in the accumulation of cellular fluorescence,[3]; cells pretreated with ionomycin vs control cells,40 fold
same,fluorescence increase on illumination of control cells,[3]; control cells without ionomycin,did not elicit significant fluorescence increase
same,rate k of cellular fluorescence increase versus irradiation time,[3]; ionomycin-treated neurons,0.240 s⁻¹
same,rate k of cellular fluorescence increase versus irradiation time,[3]; untreated neurons,0.0060 s⁻¹
"COc1ccc(-c2c3ccc(=O)cc-3oc3cc(OCc4cc(N(CC(=O)O)CC(=O)O)c(OCCOc5cc(OC)ccc5N(CC(=O)O)CC(=O)O)cc4[N+](=O)[O-])ccc23)c(C)c1 [compound S13, 2,2′-((2-(2-(2-(Bis(carboxymethyl)amino)-4-(((9-(4-methoxy-2-methylphenyl)-3-oxo-3H-xanthen-6-yl)oxy)methyl)-5-nitrophenoxy)ethoxy)-4-methoxyphenyl)azanediyl)diacetic acid]",photochemical quantum yield (Φ) in the presence of Ca^2+,[1],1.6% and 1.63±0.05%
same,photochemical quantum yield (Φ) in the absence of Ca^2+,[1],0.011% and 0.0110±0.0004%
same,enhancement in photochemical quantum yield upon Ca^2+ binding,[1],150 fold
"O=C(O)CN(CC(=O)O)c1ccc(N2CCCC2)cc1OCCOc1cc([N+](=O)[O-])c(COc2ccc3cc(C(=O)NC4CCC(N(CC(=O)O)CC(=O)O)CC4)c(=O)oc3c2)cc1N(CC(=O)O)CC(=O)O (stereo not shown) [compound of FIG. 14, where R═H, 2,2′-((2-(2-(2-(Bis(carboxymethyl)amino)-4-(((3-(((1r,4r)-4-(bis(carboxymethyl)amino)cyclohexyl)carbamoyl)-2-oxo-2H-chromen-7-yl)oxy)methyl)-5-nitrophenoxy)ethoxy)-4-(pyrrolidin-1-yl)phenyl)azanediyl)diacetic acid]",effect of the modification on calcium affinity,[4],did not increase
